Test systems include A498 renal; MOLT-4 leukemia; M14 melanoma; OVCAR-5 ovarian; IGROV1 ovarian; PC-3 prostate; SNB-19 CNS; EKVX NSCLC; T-47D breast; SK-MEL-2 melanoma.
Holding throughout (assay): NCI-60 cell line screen, 48 h

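Step 1: Grow cells in 96-well plates. Step 2: Expose to compound for 48 hours at 5 concentrations. Step 3: Interpolate endpoints linearly; if unreached, use highest concentration. Definition used: TGI = concentration required for complete inhibition of growth.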

Take `CC1=NN(c2ccc(C)cc2)C2(C1)SCC(=O)N2c1nc2ccccc2s1` (stereo not given): the TGI in the assay on A498 renal is 70.6 µM; with MOLT-4 leukemia, 46.1 µM; in the assay with M14 melanoma it was over 100 µM; in the assay on OVCAR-5 ovarian, over 100 µM; in the assay on IGROV1 ovarian, over 100 µM; with PC-3 prostate it was 70.1 µM. For the same compound, the TGI with SNB-19 CNS was over 100 µM; with EKVX NSCLC, 99.1 µM; in the assay on T-47D breast, 67.1 µM; with SK-MEL-2 melanoma, 61.1 µM.

With `CN(C)CCCn1c2ccccc2c2cnccc21`, the TGI is over 100 µM in the assay on A498 renal; 83.9 µM with MOLT-4 leukemia; 33 µM in the assay on M14 melanoma; over 100 µM in the assay with OVCAR-5 ovarian; over 100 µM with IGROV1 ovarian; over 100 µM in the assay on PC-3 prostate. Moreover, the TGI in the assay with SNB-19 CNS, in the assay on EKVX NSCLC, with T-47D breast and in the assay with SK-MEL-2 melanoma was over 100 µM each time.

With `CCOC(=O)c1c2c(n(C)c1-c1ccccc1)C(=O)C(C)=CC2=O`, the TGI with A498 renal was 34.8 µM; in the assay on MOLT-4 leukemia it was 9.96 µM; with M14 melanoma, 13.5 µM; in the assay on OVCAR-5 ovarian, 19.6 µM; with IGROV1 ovarian, 17.6 µM; in the assay on PC-3 prostate, 25.5 µM. The TGI is 26.7 µM in the assay on SNB-19 CNS, 20.5 µM with EKVX NSCLC, over 26 µM in the assay with T-47D breast and 31.1 µM with SK-MEL-2 melanoma.

With `O=C1CSC2(CC(/C=C/C=C/c3ccccc3)=NN2c2cccc(S(=O)(=O)O)c2)N1c1nc2ccccc2s1` (stereo not given), the TGI with A498 renal was over 100 µM; in the assay with MOLT-4 leukemia, 67.1 µM; with M14 melanoma, over 100 µM; in the assay on OVCAR-5 ovarian, over 100 µM; with IGROV1 ovarian it was over 100 µM; in the assay on PC-3 prostate it was over 100 µM. Besides, the TGI with SNB-19 CNS, in the assay on EKVX NSCLC, in the assay with T-47D breast and in the assay with SK-MEL-2 melanoma was over 100 µM throughout.

As for `CC1(C)OC[C@@H](/C=C\CCO[Si](c2ccccc2)(c2ccccc2)C(C)(C)C)N1C(=O)c1ccccc1`, the TGI with A498 renal was 44.8 µM; in the assay on MOLT-4 leukemia, 47.1 µM; in the assay with M14 melanoma, 32.8 µM; in the assay on OVCAR-5 ovarian, 46 µM; in the assay on IGROV1 ovarian it was over 100 µM; in the assay on PC-3 prostate, over 100 µM. For the same compound, the TGI is over 100 µM in the assay with SNB-19 CNS, 25.8 µM with EKVX NSCLC, over 100 µM in the assay with T-47D breast and 19.6 µM with SK-MEL-2 melanoma.

Consider `CCCCC[C@H](O)[C@H](C)C=C1SCCCS1`, for which the TGI in the assay with A498 renal, in the assay with MOLT-4 leukemia, in the assay on M14 melanoma, in the assay with OVCAR-5 ovarian, in the assay on IGROV1 ovarian and in the assay with PC-3 prostate was over 100 µM each time. Further, the TGI in the assay with SNB-19 CNS, with EKVX NSCLC, in the assay on T-47D breast and in the assay with SK-MEL-2 melanoma was over 100 µM in each case.

For `Oc1c2cccc1Cc1cccc3c1OCCOCCOCCOCCOc1c(cccc1Cc1cccc(c1O)C3)C2`, the TGI in the assay on A498 renal, in the assay with MOLT-4 leukemia, in the assay with M14 melanoma, with OVCAR-5 ovarian, in the assay with IGROV1 ovarian and in the assay on PC-3 prostate was over 100 µM in each case. The TGI with SNB-19 CNS, in the assay on EKVX NSCLC, in the assay with T-47D breast and in the assay with SK-MEL-2 melanoma was over 100 µM each time.

Regarding `CC(C)=CC(=O)O[C@@H]1CC(C)(C)CC2C3=CCC4[C@]56CC[C@](O)(OC5)C(C)(C)C6CC[C@@]4(C)C3(C)CC[C@]21C(=O)O` (stereo not given in full), the TGI in the assay on A498 renal, with MOLT-4 leukemia, with M14 melanoma, in the assay with OVCAR-5 ovarian, in the assay on IGROV1 ovarian and in the assay with PC-3 prostate was over 100 µM throughout. For the same compound, the TGI in the assay on SNB-19 CNS, in the assay with EKVX NSCLC, with T-47D breast and in the assay with SK-MEL-2 melanoma was over 100 µM each time.

Consider `O=C1/C(=C/c2cccc(Oc3ccccc3)c2)N=C(c2ccccc2)N1c1nc2ccc(Sc3ccccc3)cc2[nH]1`, for which the TGI was 81.2 µM in the assay with A498 renal; over 100 µM in the assay with MOLT-4 leukemia; 74.8 µM with M14 melanoma; over 100 µM in the assay with OVCAR-5 ovarian; over 100 µM with IGROV1 ovarian; over 100 µM in the assay on PC-3 prostate. For the same compound, the TGI is over 100 µM in the assay with SNB-19 CNS, over 100 µM in the assay on EKVX NSCLC, over 100 µM in the assay on T-47D breast and 38.4 µM in the assay on SK-MEL-2 melanoma.

In the case of `C=C(CCOC)CCC1CCCCC(=C)C1=O` (stereo not given), the TGI in the assay with A498 renal, in the assay with MOLT-4 leukemia, in the assay with M14 melanoma, in the assay with OVCAR-5 ovarian, in the assay with IGROV1 ovarian and in the assay with PC-3 prostate was over 100 µM in each case. Further, the TGI in the assay on SNB-19 CNS, in the assay with EKVX NSCLC, in the assay with T-47D breast and with SK-MEL-2 melanoma was over 100 µM in each case.

For `N#Cc1c(=O)c2cccnc2n2c1[nH]c1ccccc12`, the TGI with A498 renal, with MOLT-4 leukemia, in the assay with M14 melanoma, in the assay on OVCAR-5 ovarian, with IGROV1 ovarian and in the assay on PC-3 prostate was over 100 µM throughout. The TGI with SNB-19 CNS, in the assay on EKVX NSCLC, in the assay with T-47D breast and in the assay with SK-MEL-2 melanoma was over 100 µM in each case.

In the case of `O=[N+]([O-])c1ccc2nc3ccc([N+](=O)[O-])cn3c2c1`, the TGI with A498 renal, in the assay with MOLT-4 leukemia, in the assay with M14 melanoma, in the assay on OVCAR-5 ovarian, with IGROV1 ovarian and in the assay on PC-3 prostate was over 100 µM each time. Moreover, the TGI in the assay with SNB-19 CNS, in the assay on EKVX NSCLC, with T-47D breast and in the assay with SK-MEL-2 melanoma was over 100 µM throughout.

`COc1ccc(/C=N/Nc2[nH]c(=S)nc3[nH]ncc23)cc1`: the TGI was over 100 µM with A498 renal; over 100 µM in the assay on MOLT-4 leukemia; over 100 µM in the assay with M14 melanoma; over 100 µM with OVCAR-5 ovarian; 68.2 µM in the assay with IGROV1 ovarian; over 100 µM in the assay on PC-3 prostate. Further, the TGI in the assay with SNB-19 CNS was 59.2 µM; in the assay with EKVX NSCLC, over 100 µM; in the assay with T-47D breast it was 44.2 µM; in the assay on SK-MEL-2 melanoma, over 100 µM.

The values are drawn from PubChem BioAssay (NCI).
